We go through three compounds from patent US6329189A, “Enzyme producing tartaric acid ether compound and process for producing tartaric acid ether compounds using this enzyme” (Kikkoman Corporation, priority 1998, dated 2001).

Test [1] concerns enzyme producing tartaric acid ether compound. The test is described as follows: Km value from Lineweaver-Burk's plot. Type of test: biochemical, Aspergillus oryzae. The note with it: compound used as substrate.
For test [2], the target named is T1, histidine decarboxylase (HDC) (Homo sapiens, UniProt P19113).
T1 sequence (P19113 1-662): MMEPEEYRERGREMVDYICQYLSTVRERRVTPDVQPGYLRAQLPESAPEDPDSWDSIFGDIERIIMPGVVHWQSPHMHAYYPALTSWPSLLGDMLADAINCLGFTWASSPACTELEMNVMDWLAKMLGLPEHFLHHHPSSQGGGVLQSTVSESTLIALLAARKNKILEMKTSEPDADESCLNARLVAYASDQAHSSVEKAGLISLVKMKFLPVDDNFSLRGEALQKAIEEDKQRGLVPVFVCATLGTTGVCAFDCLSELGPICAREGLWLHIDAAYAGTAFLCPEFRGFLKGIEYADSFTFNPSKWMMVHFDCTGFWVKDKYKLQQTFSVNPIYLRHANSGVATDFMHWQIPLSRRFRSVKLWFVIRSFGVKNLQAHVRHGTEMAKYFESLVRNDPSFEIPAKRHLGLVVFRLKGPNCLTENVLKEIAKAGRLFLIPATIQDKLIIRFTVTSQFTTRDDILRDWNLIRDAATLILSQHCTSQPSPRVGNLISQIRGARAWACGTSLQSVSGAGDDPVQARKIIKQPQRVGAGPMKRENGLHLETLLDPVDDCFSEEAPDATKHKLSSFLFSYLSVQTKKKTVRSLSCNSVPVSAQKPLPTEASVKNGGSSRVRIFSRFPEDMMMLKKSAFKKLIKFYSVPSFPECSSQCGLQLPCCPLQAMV
The note with it: from JP-A-9-110857 and JP-A-10-59956; cited from earlier work.

In test [3] the test system is enzyme producing tartaric acid ether compound. Put plainly: Substrate specificity of the present enzyme in the presence of (±)-trans-epoxysuccinic acid. Type of test: biochemical, Aspergillus oryzae. The method, then: The activities of the present enzyme to the various substrate compounds having a phenolic hydroxyl group(s) shown in Table 1 in the presence of (±)-trans-epoxysuccinic acid were measured and shown as relative activities (%) with reference to the activity to genistein which was expressed as 100. The measurement of activity was conducted under the same conditions as used for the determination of titer described later.
Enzyme titer was determined by the following method. The amount of the enzyme that produces 1 μmol of 2-hydroxy-3-[[5-hydroxy-3-(4-hydroxyphenyl)-4-oxo-4H-1-benzopyran-7-yl]oxy]-butanedioic acid in one minute in the reaction of the following formula (6) is expressed as 1 U. [drawing 1]
Substrate solution I: 60 mM (±)-trans-epoxysuccinic acid (Tokyo Kasei Kogyo Co., Ltd.) was dissolved in 100 ml of a 50 mM sodium acetate-acetic acid buffer (pH 6.0), and the solution was adjusted to pH 6.0 with sodium hydroxide.
Substrate solution II: Prepared by dissolving 0.3 mmol of genistein (Funakoshi Co., Ltd.) in 100 ml of dimethyl sulfoxide.
50 mmol of sodium acetate and 40 mmol of manganese sulfate were dissolved in distilled water, and the solution was adjusted to pH 6.0 with acetic acid and made one litre.
(1) 0.175 ml of the buffer, 0.1 ml of the substrate solution I and 0.01 ml of an enzyme solution were pipetted into a microtube, and the mixed solution was preincubated at 37° C. for 5 minutes.
(2) The above solution was mixed with 0.025 ml of the substrate solution II and reacted at 37° C. for 15 minutes, after which 0.01 ml of concentrated hydrochloric acid was added to stop the reaction. Used as control was a solution prepared in the same way as described above except that 0.01 ml of the buffer was added in place of 0.01 ml of the enzyme solution.
2-hydroxy-3-[[5-hydroxy-3-(4-hydroxyphenyl)-4-oxo-4H-1-benzopyran-7-yl]oxy]-butanedioic acid produced from the reaction of the formula (6) was determined by HPLC under the following conditions: […]
Column: Wakosil-II5C18HG (4.6 mm×30 mm+4.6 mm×250 mm, mfd. by Wako Pure Chemical Industries, Ltd.).
Eluent: distilled water containing 0.05% of trifluoroacetic acid and 28.8% of acetonitrile.
Detecting wavelengh: 260 nm.

As for `O=C(O)[C@H]1O[C@@H]1C(=O)O` (relative stereo) [(±)-trans-epoxysuccinic acid], in test [1], the Km was 2580 µM.

With `O=C(O)C(O)C(Oc1cc(O)c2c(=O)c(-c3ccc(O)cc3)coc2c1)C(=O)O` (single isomer, unassigned) [2-hydroxy-3-[[5-hydroxy-3-(4-hydroxyphenyl)-4-oxo-4H-1-benzopyran-7-yl]oxy]-butanedioic acid], the “Inhibitory action against histidine decarboxylase (HDC)” value in test [2] was “prominent inhibitory action”.

Turning to `O=c1c(-c2ccc(O)cc2)coc2cc(O)cc(O)c12` [genistein], the “Action of the enzyme to the phenolic hydroxyl groups of the substrate (in words)” value in test [3] (in the presence of (±)-trans-epoxysuccinic acid) is recorded as “acts in a favorable way”. In addition, the “Relative activity (%)” value in test [3] (substrate in the presence of (±)-trans-epoxysuccinic acid, decrement of genistein as substrate expressed as 100) is given as 100%. Further, the Km in test [1] was determined as 1040 µM.

Usually Km stands for the substrate concentration at which the rate is half of its maximum.
